Data: paper PMC8766756, “Insights on Cancer Cell Inhibition, Subcellular Activities, and Kinase Profile of Phenylacetamides Pending 1H-Imidazol-5-One Variants” (Frontiers in Pharmacology, 2022)
“And” between values parts separate entries of the source, which are not always exact repeats. Identical values can stand only once.

Legend:
Assay in all cases: PamChip tyrosine kinase microarray
Type in all cases: biochemical
Conditions in all cases: 0.1 µM, HL60 lysate
Brk (Q13882) = molecular target: T1, Brk (Q13882) (Homo sapiens, UniProt Q13882)
T1 construct: purchased PamGene (PamChip PTK array, Upstream Kinase Analysis)
T1 sequence (Q13882 whole entry): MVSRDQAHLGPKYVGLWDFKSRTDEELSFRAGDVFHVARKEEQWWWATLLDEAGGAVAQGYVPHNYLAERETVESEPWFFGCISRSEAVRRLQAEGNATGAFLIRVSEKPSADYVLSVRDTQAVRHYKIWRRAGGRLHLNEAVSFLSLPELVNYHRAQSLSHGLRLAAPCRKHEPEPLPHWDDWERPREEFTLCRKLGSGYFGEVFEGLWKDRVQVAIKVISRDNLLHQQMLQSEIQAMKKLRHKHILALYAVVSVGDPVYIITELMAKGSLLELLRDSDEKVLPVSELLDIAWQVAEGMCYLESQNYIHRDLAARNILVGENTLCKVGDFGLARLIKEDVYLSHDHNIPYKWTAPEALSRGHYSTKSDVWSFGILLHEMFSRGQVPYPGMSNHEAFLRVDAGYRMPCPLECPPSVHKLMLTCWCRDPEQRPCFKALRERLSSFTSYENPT
Summary of the method: (§1)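 HL60 (AML) cell lysate was spiked with compound at 0.001, 0.01, 0.1, 1, 10 and 50 µM, or 2% v/v DMSO as control, then profiled in technical replicates on a tyrosine kinase peptide array of 196 phosphosites. Kinase activity was inferred from peptide-set changes using an upstream kinase tool.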

PDGFR[beta] (P09619) = molecular target: T2, PDGFR[beta] (P09619) (Homo sapiens, UniProt P09619)
T2 construct: purchased PamGene (PamChip PTK array, Upstream Kinase Analysis)
T2 sequence (P09619 33-1106): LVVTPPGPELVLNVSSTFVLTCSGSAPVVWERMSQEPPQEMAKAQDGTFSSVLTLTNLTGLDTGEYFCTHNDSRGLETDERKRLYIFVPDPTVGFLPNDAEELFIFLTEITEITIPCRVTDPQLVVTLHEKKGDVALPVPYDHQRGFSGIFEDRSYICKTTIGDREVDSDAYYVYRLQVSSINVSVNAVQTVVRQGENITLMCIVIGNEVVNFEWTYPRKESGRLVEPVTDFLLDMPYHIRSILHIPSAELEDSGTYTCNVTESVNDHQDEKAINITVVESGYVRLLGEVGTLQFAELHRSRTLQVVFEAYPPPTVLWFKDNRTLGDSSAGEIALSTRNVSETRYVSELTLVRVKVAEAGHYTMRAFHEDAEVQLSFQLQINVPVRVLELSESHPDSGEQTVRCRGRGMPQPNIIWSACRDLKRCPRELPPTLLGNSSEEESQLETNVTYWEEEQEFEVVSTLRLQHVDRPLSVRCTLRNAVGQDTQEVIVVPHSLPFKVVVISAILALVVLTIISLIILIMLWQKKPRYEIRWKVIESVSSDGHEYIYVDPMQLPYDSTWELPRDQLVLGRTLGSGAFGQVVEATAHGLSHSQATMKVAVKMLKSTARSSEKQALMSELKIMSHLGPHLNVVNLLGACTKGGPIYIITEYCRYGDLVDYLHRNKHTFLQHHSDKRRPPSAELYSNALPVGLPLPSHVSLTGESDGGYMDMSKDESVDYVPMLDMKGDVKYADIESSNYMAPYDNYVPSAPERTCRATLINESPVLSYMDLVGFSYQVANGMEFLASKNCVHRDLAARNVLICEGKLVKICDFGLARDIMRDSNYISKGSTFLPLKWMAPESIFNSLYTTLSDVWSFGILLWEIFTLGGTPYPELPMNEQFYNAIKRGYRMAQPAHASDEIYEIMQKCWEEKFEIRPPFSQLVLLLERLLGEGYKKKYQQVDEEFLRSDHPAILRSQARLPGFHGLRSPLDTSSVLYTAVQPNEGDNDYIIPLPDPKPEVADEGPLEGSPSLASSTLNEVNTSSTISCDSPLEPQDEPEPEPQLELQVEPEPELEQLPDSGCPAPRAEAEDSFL
Summary of the method: as §1

TXK (P42681) = molecular target: T3, TXK (P42681) (Homo sapiens, UniProt P42681)
T3 construct: purchased PamGene (PamChip PTK array, Upstream Kinase Analysis)
T3 sequence (P42681 1-527): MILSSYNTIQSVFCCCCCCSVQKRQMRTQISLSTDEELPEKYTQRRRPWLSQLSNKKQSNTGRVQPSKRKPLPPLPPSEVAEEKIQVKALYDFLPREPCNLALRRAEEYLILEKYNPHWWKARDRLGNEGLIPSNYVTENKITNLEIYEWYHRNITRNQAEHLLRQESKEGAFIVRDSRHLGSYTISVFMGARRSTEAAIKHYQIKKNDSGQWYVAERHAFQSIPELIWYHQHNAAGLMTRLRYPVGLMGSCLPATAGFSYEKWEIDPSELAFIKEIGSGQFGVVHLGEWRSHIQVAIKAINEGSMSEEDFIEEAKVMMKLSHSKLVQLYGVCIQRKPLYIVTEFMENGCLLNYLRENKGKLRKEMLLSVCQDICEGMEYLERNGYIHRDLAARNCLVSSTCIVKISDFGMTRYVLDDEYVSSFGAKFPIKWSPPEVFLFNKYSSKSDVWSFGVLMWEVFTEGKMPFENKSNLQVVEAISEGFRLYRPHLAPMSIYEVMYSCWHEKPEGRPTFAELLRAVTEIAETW
Summary of the method: as §1

Mer (Q12866) = molecular target: T4, Mer (Q12866) (Homo sapiens, UniProt Q12866)
T4 construct: purchased PamGene (PamChip PTK array, Upstream Kinase Analysis)
T4 sequence (Q12866 21-999): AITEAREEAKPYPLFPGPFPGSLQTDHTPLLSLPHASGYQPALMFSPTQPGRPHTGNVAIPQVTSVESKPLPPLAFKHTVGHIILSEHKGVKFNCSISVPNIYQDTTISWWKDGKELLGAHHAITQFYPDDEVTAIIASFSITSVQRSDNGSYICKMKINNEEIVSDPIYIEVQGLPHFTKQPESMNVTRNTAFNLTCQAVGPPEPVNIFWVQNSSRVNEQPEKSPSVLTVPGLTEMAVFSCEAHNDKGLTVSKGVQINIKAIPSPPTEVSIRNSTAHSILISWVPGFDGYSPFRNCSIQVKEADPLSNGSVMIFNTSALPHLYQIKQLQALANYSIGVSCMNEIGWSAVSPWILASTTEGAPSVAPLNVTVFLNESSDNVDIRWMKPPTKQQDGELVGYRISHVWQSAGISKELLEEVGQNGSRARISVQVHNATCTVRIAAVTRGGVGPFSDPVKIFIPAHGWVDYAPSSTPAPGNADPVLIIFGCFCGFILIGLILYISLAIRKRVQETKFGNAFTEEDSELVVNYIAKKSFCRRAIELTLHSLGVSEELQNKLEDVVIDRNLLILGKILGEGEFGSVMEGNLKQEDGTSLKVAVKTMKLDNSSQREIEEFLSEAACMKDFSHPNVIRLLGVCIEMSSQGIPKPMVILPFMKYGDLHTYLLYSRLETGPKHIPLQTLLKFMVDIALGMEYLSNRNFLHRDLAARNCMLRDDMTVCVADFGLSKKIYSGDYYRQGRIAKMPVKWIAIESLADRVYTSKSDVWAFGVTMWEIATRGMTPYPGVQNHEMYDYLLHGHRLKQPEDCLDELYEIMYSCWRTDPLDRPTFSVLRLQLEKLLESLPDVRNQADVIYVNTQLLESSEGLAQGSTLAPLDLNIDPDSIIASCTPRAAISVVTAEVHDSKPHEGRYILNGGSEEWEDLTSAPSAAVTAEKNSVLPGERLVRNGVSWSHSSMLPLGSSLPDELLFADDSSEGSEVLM
Summary of the method: as §1

JAK2 (O60674) = molecular target: T5, JAK2 (O60674) (Homo sapiens, UniProt O60674)
T5 construct: purchased PamGene (PamChip PTK array, Upstream Kinase Analysis)
T5 sequence (O60674 whole entry): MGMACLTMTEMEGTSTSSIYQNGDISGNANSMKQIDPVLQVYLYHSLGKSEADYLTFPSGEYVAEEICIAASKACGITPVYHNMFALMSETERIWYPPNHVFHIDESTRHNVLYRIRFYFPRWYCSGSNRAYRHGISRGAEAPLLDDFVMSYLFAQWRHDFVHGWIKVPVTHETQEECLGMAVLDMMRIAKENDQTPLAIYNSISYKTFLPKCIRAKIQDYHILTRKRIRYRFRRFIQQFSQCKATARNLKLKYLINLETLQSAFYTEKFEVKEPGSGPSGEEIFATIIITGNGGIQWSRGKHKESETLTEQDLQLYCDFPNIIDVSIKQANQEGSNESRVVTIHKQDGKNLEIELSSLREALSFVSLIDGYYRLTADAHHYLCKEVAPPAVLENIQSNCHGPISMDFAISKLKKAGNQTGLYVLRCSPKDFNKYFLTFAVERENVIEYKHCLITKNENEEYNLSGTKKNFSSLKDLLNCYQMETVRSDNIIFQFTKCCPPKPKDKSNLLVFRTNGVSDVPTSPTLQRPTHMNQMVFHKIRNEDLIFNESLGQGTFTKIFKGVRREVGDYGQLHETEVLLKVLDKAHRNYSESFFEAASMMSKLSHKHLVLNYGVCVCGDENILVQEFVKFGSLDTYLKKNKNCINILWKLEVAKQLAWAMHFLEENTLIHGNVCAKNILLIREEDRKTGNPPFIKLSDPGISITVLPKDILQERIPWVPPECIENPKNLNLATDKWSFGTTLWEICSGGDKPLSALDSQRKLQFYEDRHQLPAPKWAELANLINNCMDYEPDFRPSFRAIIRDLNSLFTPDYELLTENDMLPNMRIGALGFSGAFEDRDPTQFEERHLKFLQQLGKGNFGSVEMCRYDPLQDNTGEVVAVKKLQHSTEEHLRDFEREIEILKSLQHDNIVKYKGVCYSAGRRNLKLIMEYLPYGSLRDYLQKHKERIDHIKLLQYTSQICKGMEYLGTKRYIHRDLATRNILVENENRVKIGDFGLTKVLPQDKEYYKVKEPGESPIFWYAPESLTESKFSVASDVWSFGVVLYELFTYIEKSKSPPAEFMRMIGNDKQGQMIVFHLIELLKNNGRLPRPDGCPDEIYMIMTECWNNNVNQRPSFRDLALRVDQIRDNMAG
Summary of the method: as §1

Compound: COc1ccc(/C=C2\N=C(C)N(c3ccc(CC(=O)NCc4ccccc4)cc3)C2=O)cc1 [Compound 4c, (Z)-N-Benzyl-2-(4-(4-(4-methoxybenzylidene)-2-methyl-5-oxo-4,5-dihydro-1H-imidazol-1-yl)phenyl)acetamide]
- Mean Final score (Kinase score) (Brk (Q13882)): 2.481
- Mean Kinase Statistic (Brk (Q13882)): -1.21
- Mean Significance Score (Brk (Q13882)): 2.048
- Mean Specificity Score (Brk (Q13882)): 0.446
- Mean Final score (Kinase score) (PDGFR[beta] (P09619)): 2.559
- Mean Kinase Statistic (PDGFR[beta] (P09619)): -1.304
- Mean Significance Score (PDGFR[beta] (P09619)): 2.048
- Mean Specificity Score (PDGFR[beta] (P09619)): 0.562
- Mean Significance Score (TXK (P42681)): 2.048
- Mean Specificity Score (TXK (P42681)): 0.6377
- Mean Final score (Kinase score) (TXK (P42681); listed as KIM-161): 2.68
- Mean Final score (Kinase score) (Mer (Q12866)): 2.544
- Mean Kinase Statistic (Mer (Q12866)): -1.224
- Mean Significance Score (Mer (Q12866)): 2.048
- Mean Specificity Score (Mer (Q12866)): 0.533
- Mean Significance Score (JAK2 (O60674)): 2.048
- Mean Specificity Score (JAK2 (O60674)): 1.216
- Mean Final score (Kinase score) (JAK2 (O60674); listed as KIM-161): 3.19 and 3.191
- Mean Kinase Statistic (JAK2 (O60674); listed as KIM-161): −1.43
